Measured values reported in publication PMC4979060, “Structural basis of metallo-β-lactamase, serine-β-lactamase and penicillin-binding protein inhibition by cyclic boronates” (Nature Communications, 2016).
Values after ≈ are worked out from the molar mass of the structure shown. Read-outs that look alike come from different tables or passages of the source.

Legend:
[1] = test system: K. pneumoniae Ecl8 pSU18:NDM-1; assay: MIC by broth microdilution and checkerboard; type: cell-based; details: for MIC: Klebsiella pneumoniae
Source text: (§1) Bacterial strains: E. coli ATCC 25922 (ref. [35]) and K. pneumoniae NCTC 5055 (ref. [36]) were used as reference strains. K. pneumoniae Ecl8 (ref. [16]) and its ramR knock-out[37] were used as previously described. K. pneumoniae strain IR8 (ref. [40]), and E. coli strains IR10 and IR60 (ref. [17]) were generous gifts of Prof. T.R. Walsh. Plasmid pSU18:NDM-1 contains the complete blaNDM-1 open reading frame, together with its promoter, cloned into plasmid pSU18 (ref. [41]). The recombinant plasmid was made by PCR amplifying the blaNDM-1 gene and surrounding sequences from E. coli IR10 with primers NDM1F 5′- […] -3′ and NDM1R 5′- GGCGATGACAGCATCATC -3′, TA cloning the amplicon into pCR2.1 TOPO (Invitrogen) and subcloning into pSU18 using BamHI and XbaI.
(§2) MIC values were determined by broth microdilution, in triplicate, in cation-adjusted Mueller Hinton broth (Sigma) according to the Clinical Laboratory Standards Institute (CLSI) guidelines. Experiments were carried out in microtitre plates (Corning) containing the medium plus meropenem (Sequoia Research Products, Pangbourne, UK) and/or inhibitor 2 as appropriate. Chloramphenicol (20 μg ml^−1) was included in assays of strains (K. pneumoniae Ecl8 and derivative) that carried pSU18 plasmids or derivatives (pSU18:NDM-1) to ensure maintenance of plasmids throughout. Inhibitor 2 was dissolved in DMSO to 100 mg ml^−1 and diluted in broth. The final concentration of DMSO in the assays was kept constant at 0.01% (experiments using 10 μg ml^−1 inhibitor) or 0.03% (experiments using 25 μg ml^−1 inhibitor). Plates were incubated overnight at 37 °C for 18–24 h and absorbance at 600 nm read using a Polarstar Omega (BMG LabTech) plate reader.

K. pneumoniae IR8 = assay: microbe, parasite or virus in culture; type: cell-based; details: Klebsiella pneumoniae, K. pneumoniae IR8
Source text: as §1, §2

E. coli IR10 = assay: MIC by broth microdilution; type: cell-based; details: Escherichia coli
Source text: as §1, §2

E. coli IR60 = assay: MIC by broth microdilution; type: cell-based; details: Escherichia coli
Source text: as §1, §2

[2] = test system: K pneumoniae Ecl8 ΔramR pSU18:NDM-1; assay: MIC by broth microdilution; type: cell-based; details: Ecl8 ΔramR pSU18:NDM-1; for MIC: Klebsiella pneumoniae; for Meropenem MIC (25 μg ml^−1 2): with 25 μg ml^−1 2
Source text: as §1, §2

[3] = test system: K pneumoniae Ecl8 ΔramR pSU18; assay: MIC by broth microdilution; type: cell-based; details: Klebsiella pneumoniae
Source text: as §1, §2

K. pneumoniae Ecl8 pSU18 = assay: MIC by broth microdilution; type: cell-based; details: Klebsiella pneumoniae
Source text: as §1, §2

BcII = biological target: T1, BcII (Bacillus cereus, UniProt P04190); assay: Fluorogenic β-lactamase inhibition assay (FC-5 substrate), BcII; type: biochemical
T1 construct: made in house; host or cells: E. coli
Protocol: (§3) Kinetic and inhibition analyses, and ^19F NMR studies[10] against bacterial β-lactamases were performed as described. The FC-5 cephalosporin[9] was used as substrate for BcII, VIM-2, IMP-1, NDM-1, SPM-1, TEM-1 and OXA-10, meropenem[28] for CphA and nitrocefin[34] for PBP 3 and PBP 5.
(§4) In brief IC50 values were determined by preincubation of the appropriate amount of enzyme with the cyclic boronates in the assay buffers for 10 min at room temperature prior to the initiation of the assay by the addition of the appropriate substrate. The enzyme concentrations used are the following: 1 nM BcII, 100 nM VIM-2, 10 nM IMP-1, 10 nM NDM-1, 1 nM SPM-1, 1 nM TEM-1, 1 nM OXA-10, 2.5 nM CphA, 4 μM PBP 3 and 5 μM PBP 5; note that the final concentrations are stated. The assay buffers used are the following: 50 mM HEPES, pH 7.2 supplemented with 1 μg BSA, 1 μg ZnSO4 and 0.01% Triton for BcII, VIM-2, IMP-1, NDM-1 and SPM-1, 15 mM MES, pH 6.5 for CphA, 50 mM HEPES, pH 7.2 supplemented with 200 mM NaCl and 0.01% Triton 100 for TEM-1, 100 mM sodium phosphate, pH 7.2 supplemented with 50 mM NaHCO3 and 0.01% Triton 100 for OXA-10 and 50 mM HEPES, pH 7.2 supplemented with 200 mM NaCl and 0.01% Triton 100 for PBP 3 and PBP 5. The amount of substrates used is the following: 5 μM for BcII, VIM-2, IMP-1, NDM-1 and SPM-1, 10 μM for TEM-1 and OXA-10, 125 μM for CphA and 25 μM for PBP 3 and PBP 5; note that the final concentrations are stated.
(§5) The experiments were performed using a PHERAstar FS microplate reader (BMG Labtech) at room temperature (24–25 °C). All enzymes and inhibitors were prepared in the specific assay buffer. The kinetic values in this study are the means from at least three independent measurements; at least nine different concentrations of the inhibitor were used to determine the kinetic parameters (IC50). The IC50 values were determined using the software package Graph Prism 5.

VIM-2 = biological target: T2, VIM-2 (Escherichia coli, UniProt Q5U7L7); assay: Fluorogenic β-lactamase inhibition assay (FC-5 substrate), VIM-2; type: biochemical
T2 construct: made in house; host or cells: E. coli
Protocol: as §3, §4, §5

IMP-1 = biological target: T3, IMP-1 (Serratia marcescens, UniProt P52699); assay: Fluorogenic β-lactamase inhibition assay (FC-5 substrate), IMP-1; type: biochemical
T3 construct: made in house; host or cells: E. coli
Protocol: as §3
In brief IC50 values were determined by preincubation of the appropriate amount of enzyme with the cyclic boronates in the assay buffers for 10 min at room temperature prior to the initiation of the assay by the addition of the appropriate substrate. The enzyme concentrations used are the following: 1 nM BcII, 100 nM VIM-2, 10 nM IMP-1, 10 nM NDM-1, 1 nM SPM-1, 1 nM TEM-1, 1 nM OXA-10, 2.5 nM CphA, 4 μM PBP 3 and 5 μM PBP 5; note that the final concentrations are stated. […]
The experiments were performed using a PHERAstar FS microplate reader (BMG Labtech) at room temperature (24–25 °C). […] The IC50 values were determined using the software package Graph Prism 5.

NDM-1 = biological target: T4, NDM-1 (Klebsiella pneumoniae, UniProt C7C422); assay: Fluorogenic β-lactamase inhibition assay (FC-5 substrate), NDM-1; type: biochemical
T4 construct: made in house; host or cells: E. coli
Protocol: as §3, §4, §5

SPM-1 = SPM-1 (Pseudomonas aeruginosa, UniProt Q8G9Q0); assay: Fluorogenic β-lactamase inhibition assay (FC-5 substrate), SPM-1; type: biochemical
Protocol: as §3, §4, §5

CphA = biological target: T5, CphA (Aeromonas hydrophila, UniProt P26918); assay: B2 MBL inhibition assay (meropenem substrate), CphA; type: biochemical, Aeromonas hydrophilia
T5 construct: made in house; host or cells: E. coli
Protocol: as §3, §4, §5

TEM-1 = biological target: T6, TEM-1 (Escherichia coli, UniProt P62593); assay: Fluorogenic β-lactamase inhibition assay (FC-5 substrate), TEM-1; type: biochemical
T6 construct: made in house; host or cells: E. coli
Protocol: as §3, §4, §5

OXA-10 = biological target: T7, OXA-10 (Pseudomonas aeruginosa, UniProt P14489); assay: Fluorogenic β-lactamase inhibition assay (FC-5 substrate), OXA-10; type: biochemical
T7 construct: made in house; host or cells: E. coli
Protocol: as §3, §4, §5

PBP 3 = biological target: T8, PBP 3 (Pseudomonas aeruginosa, UniProt G3XD46); assay: PBP inhibition assay (nitrocefin substrate), PBP 3; type: biochemical; details: NI = no inhibition at 100 μM, read-out: IC50 (μM)/pIC50 (converted)
T8 construct: made in house; host or cells: E. coli
Protocol: as §3, §4, §5

HEK293 cells = assay: Cytotoxicity assay (MTS); type: cell-based; details: human HEK293 cells, concentrations up to 100 μM, 24 h
Protocol: HEK293 cells were seeded (2,000 per well) in normal DMEM in 96-well plates.[34] After 24 h, wells were dosed with titrated concentration of compounds in 1% dimethyl sulphoxide (DMSO)—final volume of media about 100 μl. Following a further 24 h incubation period, 20 μl tetrazolium (MTS, CellTiter96Aqueous One Solution (Promega)) was added to the media in each well. The plate was incubated at 37 °C, 5% CO2 for 4 h in the dark before absorbance was read at 490 nm to determine cell proliferation values.

T1 sequence (P04190 31-257): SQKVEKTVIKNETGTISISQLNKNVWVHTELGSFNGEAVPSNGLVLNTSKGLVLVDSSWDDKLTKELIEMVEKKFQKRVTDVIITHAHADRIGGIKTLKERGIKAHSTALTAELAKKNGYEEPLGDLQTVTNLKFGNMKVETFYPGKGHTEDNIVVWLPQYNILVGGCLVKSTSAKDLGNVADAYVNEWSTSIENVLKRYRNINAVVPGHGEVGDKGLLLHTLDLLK
T5 sequence (P26918 28-254): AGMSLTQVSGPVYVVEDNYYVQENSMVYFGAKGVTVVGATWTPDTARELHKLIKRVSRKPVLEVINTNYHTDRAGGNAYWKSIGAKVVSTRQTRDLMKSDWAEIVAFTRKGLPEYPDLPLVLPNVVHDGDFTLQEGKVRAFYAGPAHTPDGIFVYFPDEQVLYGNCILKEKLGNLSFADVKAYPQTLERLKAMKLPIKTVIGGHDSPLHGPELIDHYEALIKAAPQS
SPM-1, sequence (Q8G9Q0 entry or part of it): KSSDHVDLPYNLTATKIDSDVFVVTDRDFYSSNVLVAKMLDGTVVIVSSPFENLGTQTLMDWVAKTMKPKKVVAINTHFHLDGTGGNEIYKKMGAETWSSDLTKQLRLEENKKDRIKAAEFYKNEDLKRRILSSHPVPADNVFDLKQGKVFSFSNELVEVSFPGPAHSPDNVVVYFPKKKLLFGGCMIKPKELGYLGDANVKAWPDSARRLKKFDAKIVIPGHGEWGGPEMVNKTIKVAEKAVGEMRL
T6 sequence (P62593 24-286 limits assumed): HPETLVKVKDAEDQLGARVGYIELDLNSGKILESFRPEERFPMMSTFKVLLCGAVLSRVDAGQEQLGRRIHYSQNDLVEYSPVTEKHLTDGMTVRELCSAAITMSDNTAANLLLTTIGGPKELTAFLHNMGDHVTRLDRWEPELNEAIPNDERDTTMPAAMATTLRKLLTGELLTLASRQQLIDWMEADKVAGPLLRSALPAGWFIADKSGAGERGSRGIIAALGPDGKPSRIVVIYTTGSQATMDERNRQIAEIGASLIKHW
T4 sequence (C7C422 29-270, looked up, species assumed): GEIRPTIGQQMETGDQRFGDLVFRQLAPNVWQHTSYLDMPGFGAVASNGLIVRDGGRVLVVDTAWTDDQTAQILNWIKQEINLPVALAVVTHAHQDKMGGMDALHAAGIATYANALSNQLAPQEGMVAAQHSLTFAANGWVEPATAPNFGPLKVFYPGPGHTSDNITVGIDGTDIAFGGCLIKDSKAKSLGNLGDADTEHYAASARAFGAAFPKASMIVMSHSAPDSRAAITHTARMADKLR
T3 sequence (P52699 19-246, looked up, species assumed): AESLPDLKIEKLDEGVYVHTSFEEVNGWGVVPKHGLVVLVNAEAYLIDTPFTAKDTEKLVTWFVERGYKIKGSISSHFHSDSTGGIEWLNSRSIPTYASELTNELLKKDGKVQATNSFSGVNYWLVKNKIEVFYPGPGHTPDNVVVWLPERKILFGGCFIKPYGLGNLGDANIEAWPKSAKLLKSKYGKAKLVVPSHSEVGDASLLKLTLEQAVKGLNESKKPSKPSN
T8 sequence (G3XD46 whole entry): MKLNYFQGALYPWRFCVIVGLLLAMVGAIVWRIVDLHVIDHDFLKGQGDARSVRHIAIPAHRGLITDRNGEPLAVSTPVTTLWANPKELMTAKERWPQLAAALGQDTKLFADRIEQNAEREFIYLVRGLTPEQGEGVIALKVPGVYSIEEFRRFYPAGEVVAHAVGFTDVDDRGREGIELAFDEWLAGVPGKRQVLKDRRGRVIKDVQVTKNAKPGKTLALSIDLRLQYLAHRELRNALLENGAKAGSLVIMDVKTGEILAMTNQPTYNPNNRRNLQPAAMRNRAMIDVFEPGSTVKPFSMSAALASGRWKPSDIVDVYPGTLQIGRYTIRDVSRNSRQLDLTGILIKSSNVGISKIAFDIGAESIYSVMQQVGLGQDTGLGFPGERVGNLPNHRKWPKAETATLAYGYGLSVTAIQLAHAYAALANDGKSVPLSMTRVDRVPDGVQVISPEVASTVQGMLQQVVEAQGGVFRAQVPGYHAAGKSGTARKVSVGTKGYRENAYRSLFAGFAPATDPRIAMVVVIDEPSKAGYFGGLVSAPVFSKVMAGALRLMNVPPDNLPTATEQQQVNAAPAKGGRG
T7 sequence (P14489 20-266, species assumed): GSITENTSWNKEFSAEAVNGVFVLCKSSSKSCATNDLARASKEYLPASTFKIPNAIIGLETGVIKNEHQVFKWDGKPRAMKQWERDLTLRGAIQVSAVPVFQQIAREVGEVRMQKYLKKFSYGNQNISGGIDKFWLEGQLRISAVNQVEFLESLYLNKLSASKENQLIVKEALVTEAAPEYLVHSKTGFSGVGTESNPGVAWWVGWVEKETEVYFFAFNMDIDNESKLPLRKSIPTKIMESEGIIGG

SMILES: C[C@@H](O)[C@H]1C(=O)N2C(C(=O)O)=C(S[C@@H]3CN[C@H](C(=O)N(C)C)C3)[C@H](C)[C@H]12 [Meropenem, meropenem]
- MIC ([1]; read-out: Meropenem MIC (10 μg ml^−1 2), with 10 μg ml^−1 2, Ecl8 pSU18:NDM-1): 8 µg/mL
- MIC ([1]; read-out: Meropenem MIC (25 μg ml^−1 2), with 25 μg ml^−1 2, Ecl8 pSU18:NDM-1): < 8 µg/mL
- MIC ([1]; read-out: Meropenem MIC, checkerboard, 2 at 0 μg mL-1): 128 µg/mL
- MIC ([1]; read-out: Meropenem MIC, checkerboard, 2 at 0.5 μg mL-1): 64 µg/mL
- MIC ([1]; read-out: Meropenem MIC, checkerboard, 2 at 1 μg mL-1): 32 µg/mL
- MIC ([1]; read-out: Meropenem MIC, checkerboard, 2 at 2 μg mL-1): 32 µg/mL
- MIC ([1]; read-out: Meropenem MIC, checkerboard, 2 at 4 μg mL-1): 16 µg/mL
- MIC ([1]; read-out: Meropenem MIC, checkerboard, 2 at 8 μg mL-1): 8 µg/mL
- MIC ([1]; read-out: Meropenem MIC, checkerboard, 2 at 16 μg mL-1): 4 µg/mL
- MIC ([1]; read-out: Meropenem MIC, checkerboard, 2 at 32 μg mL-1): 2 µg/mL
- MIC ([1]; read-out: Meropenem MIC, checkerboard, 2 at 64 μg mL-1): ≤ 1 µg/mL
- MIC ([1]; read-out: Meropenem MIC, meropenem alone, Ecl8 pSU18:NDM-1): > 128 µg/mL
- Meropenem MIC (25 μg ml^−1 2) ([1]; with 25 μg ml^−1 2, Ecl8 pSU18:NDM-1): 4 µg/mL
- MIC (K. pneumoniae IR8; meropenem alone, read-out: Meropenem MIC): 128 µg/mL (≈ 334 µM)
- MIC (K. pneumoniae IR8; with 10 μg ml^−1 2, read-out: Meropenem MIC (10 μg ml^−1 2)): 32 µg/mL (≈ 83.4 µM)
- MIC (K. pneumoniae IR8; with 25 μg ml^−1 2, read-out: Meropenem MIC (25 μg ml^−1 2)): 16 µg/mL (≈ 41.7 µM)
- MIC (E. coli IR10; IR10, read-out: Meropenem MIC): 128 µg/mL (≈ 334 µM)
- MIC (E. coli IR10; IR10, read-out: Meropenem MIC (10 μg ml^−1 2)): 8 µg/mL (≈ 20.9 µM)
- MIC (E. coli IR10; IR10, read-out: Meropenem MIC (25 μg ml^−1 2)): 2 µg/mL (≈ 5.22 µM)
- MIC (E. coli IR60; IR60, read-out: Meropenem MIC): 64 µg/mL (≈ 167 µM)
- MIC (E. coli IR60; IR60, read-out: Meropenem MIC (10 μg ml^−1 2)): 16 µg/mL (≈ 41.7 µM)
- MIC (E. coli IR60; IR60, read-out: Meropenem MIC (25 μg ml^−1 2)): 16 µg/mL (≈ 41.7 µM)
- MIC ([2]; read-out: Meropenem MIC (10 μg ml^−1 2), with 10 μg ml^−1 2): 16 µg/mL (≈ 41.7 µM)
- MIC ([2]; read-out: Meropenem MIC, meropenem alone): > 128 µg/mL
- Meropenem MIC (25 μg ml^−1 2) [2]: 2 µg/mL
- Meropenem MIC (25 μg ml^−1 2) ([2]; listed as meropenem): < 8 µg/mL
- MIC ([3]; read-out: Meropenem MIC): ≤ 0.25 µg/mL
- MIC ([3]; read-out: Meropenem MIC (10 μg ml^−1 2)): ≤ 0.25 µg/mL
- MIC ([3]; read-out: Meropenem MIC (25 μg ml^−1 2)): ≤ 0.25 µg/mL
- MIC (K. pneumoniae Ecl8 pSU18; ECL8PSU18, read-out: Meropenem MIC): ≤ 0.25 µg/mL
- MIC (K. pneumoniae Ecl8 pSU18; ECL8PSU18, read-out: Meropenem MIC (10 μg ml^−1 2)): ≤ 0.25 µg/mL
- MIC (K. pneumoniae Ecl8 pSU18; ECL8PSU18, read-out: Meropenem MIC (25 μg ml^−1 2)): ≤ 0.25 µg/mL

SMILES: O=C(O)c1cccc2c1O[B-](O)(O)[C@@H](NC(=O)C1CCCCC1)C2 [compound 1]
- pIC50 (BcII): 5.1
- IC50 (BcII; 10 min preincubation): 7.27 µM
- pIC50 (VIM-2): 7.3
- IC50 (VIM-2; 10 min preincubation): 0.051 µM
- pIC50 (IMP-1): 4.6
- pIC50 (NDM-1): 5.7
- IC50 (NDM-1; 10 min preincubation): 2.04 µM
- pIC50 (SPM-1): 4.6
- IC50 (SPM-1; 10 min preincubation): 24.1 µM
- pIC50 (CphA): 5.3
- IC50 (CphA; 10 min preincubation): 4.42 µM
- pIC50 (TEM-1): 8.9
- IC50 (TEM-1; 10 min preincubation): 0.001 µM
- pIC50 (OXA-10): 6.4
- IC50 (PBP 3): > 100 µM
- cytotoxicity (HEK293 cells): Neither 1 nor 2 showed cytotoxicity
